# US20260306644A1, “ANTIBODY RECRUITING MOLECULES FOR THE TREATMENT OF CORONAVIRUS DISEASE-19” (priority 2023, published 2026)
# Where “and” joins values, the source holds several entries; their conditions need not be identical. Identical values can stand only once. Like-named read-outs stand apart in the source and are kept apart here. Positions of bridges follow the written chain, without caps; N, C: chain ends. Residues, ends and D or L forms follow the SMILES beside them. No end group written: not given here. *: point of attachment. Biotin = O=C1N[C@H]2[C@H](CS[C@H]2CCCCC(=O)*)N1; PEG4 = NCCOCCOCCOCCOCCC(=O)O
# Tests used:
# [1] = system: Spike RBD coated magnetic beads / RAW 264.7 macrophages; assay: Antibody-dependent cellular phagocytosis (ADCP), RAW 264.7 macrophages and Spike RBD coated magnetic beads, flow cytometry; type: cell-based; conditions: 37° C., 2 hours, read-out: SARS-COV-2 ADCP EC50
# Protocol: The ability of the compounds to mediate antibody-dependent cellular phagocytosis (ADCP) was assessed using RAW 264.7 macrophages and Spike RBD coated magnetic beads (https://www.acrobiosystems.com/P3194-SARS-CoV-2-Spike-RBD-coupled-Magnetic-Beads.html). Spike RBD coated magnetic beads (3 ul per well) were added to each well of a round bottom 96-well plates. RAW264.7 cells (50,000 cells per well) were added to the beads. Next, the compounds were administered to predetermined final concentrations. The cell-bead mixtures were incubated at 37° C. for 2 hours. The mixtures were then analyzed by flow cytometry.
# [2] = target: SARS-CoV-2 Spike protein (Severe acute respiratory syndrome coronavirus 2, UniProt P0DTC2); assay: Ternary binding of SARS-CoV-2 Spike protein (293T cells expressing Spike-GFP, IgG-AF647, flow cytometry); type: cell-based; conditions: IgG-AF647 10 μg/ml, repeat values/batches listed separately, read-out: SARS-CoV-2 Ternary binding EC50
# [3] = target: T1, SARS-CoV-2 Spike A (wild-type) (Severe acute respiratory syndrome coronavirus 2, UniProt P0DTC2); assay: MSD ACE2 competition assay (inhibition of Spike binding with ACE2, ECL), A (wild-type)
# T1 construct: purchased Meso Scale Diagnostics, LLC V-PLEX SARS-CoV-2 Panel 13 (ACE2) Kit / Panel 23 (ACE2) Kit
# [4] = 293T cells expressing Spike-GFP
# [5] = IC50 Wild Type, Wild Type Spike
# [6] = read-out: IC50 Wild Type, Wild Type Spike
Compound,EC50 [1],"EC50 [2, 4]","IC50 [3, 5]",EC50 ([2]; […]),"IC50 [3, 6]"
CC[C@H](C)[C@H](NC(=O)[C@H](CC(C)C)NC(=O)[C@H](CC(=O)O)NC(=O)[C@H](CO)NC(=O)[C@@H](NC(=O)[C@H](CCCNC(=N)N)NC(=O)[C@H](CCSC)NC(=O)[C@H](CO)NC(=O)[C@H](C)NC(=O)[C@H](CCC(=O)O)NC(=O)[C@H](C)NC(=O)[C@H](Cc1c[nH]cn1)NC(=O)CNC(=O)[C@H](CC(C)C)NC(=O)[C@H](CCC(=O)O)NC(=O)[C@H](CC(=O)O)NC(=O)[C@H](CC(C)C)NC(=O)[C@H](CC(C)C)NC(=O)[C@H](CCCNC(=N)N)NC(=O)[C@H](CCSC)NC(=O)[C@@H](NC(=O)[C@H](CCC(=O)O)NC(=O)[C@H](Cc1ccc(O)cc1)NC(=O)[C@@H](NC(=O)[C@H](CCCCN)NC(=O)[C@H](CCC(N)=O)NC(=O)[C@H](CC(C)C)NC(=O)[C@@H](NC(=O)[C@H](Cc1c[nH]c2ccccc12)NC(=O)[C@H](CCC(=O)O)NC(=O)[C@H](CCCCN)NC(=O)[C@H](CC(=O)O)NC(C)=O)[C@@H](C)CC)[C@@H](C)CC)[C@@H](C)CC)C(C)C)C(=O)N[C@@H](Cc1ccc(O)cc1)C(=O)N[C@@H](CCC(=O)O)C(=O)N[C@@H](Cc1ccccc1)C(=O)N[C@@H](CCSC)C(=O)N[C@@H](CCCCN)C(=O)N[C@@H](CCCCN)C(=O)NCC(=O)N[C@@H](CC(=O)O)C(=O)N[C@@H](CCC(=O)O)C(=O)N[C@@H](CCCNC(=N)N)C(=O)N[C@@H](CC(C)C)C(=O)N[C@@H](CC(C)C)C(=O)N[C@@H](CCC(=O)O)C(=O)N[C@@H](CCC(=O)O)C(=O)N[C@@H](C)C(=O)N[C@@H](CCC(=O)O)C(=O)N[C@@H](CCCNC(=N)N)C(=O)N[C@@H](CC(C)C)C(=O)N[C@@H](CC(C)C)C(=O)N[C@@H](CCC(=O)O)C(=O)N[C@@H](CCC(=O)O)C(=O)N[C@H](C(=O)N[C@@H](CCC(=O)O)C(=O)N[C@@H](CCCNC(=N)N)C(=O)NCCOCCOCCOCCOCCOCCOCCOCCOCCC(=O)NCCOCCOCCOCCOCCOCCOCCOCCOCCC(=O)N[C@@H](CC(=O)O)C(=O)N[C@H]1CSSC[C@@H](C(=O)N[C@H](C(N)=O)[C@@H](C)O)NC(=O)[C@H](Cc2c[nH]c3ccccc23)NC(=O)[C@H](C(C)C)NC(=O)[C@H](CC(C)C)NC(=O)[C@H](CCC(=O)O)NC(=O)CNC(=O)[C@H](CC(C)C)NC(=O)[C@H](Cc2c[nH]cn2)NC(=O)[C@H](Cc2c[nH]c3ccccc23)NC(=O)[C@H](C)NC1=O)C(C)C [Compound 124],0.43 nM,,,,
CC[C@H](C)[C@H](NC(=O)[C@H](CC(C)C)NC(=O)[C@H](CC(=O)O)NC(=O)[C@H](CO)NC(=O)[C@@H](NC(=O)[C@H](CCCNC(=N)N)NC(=O)[C@H](CCSC)NC(=O)[C@H](CO)NC(=O)[C@H](C)NC(=O)[C@H](CCC(=O)O)NC(=O)[C@H](C)NC(=O)[C@H](Cc1c[nH]cn1)NC(=O)CNC(=O)[C@H](CC(C)C)NC(=O)[C@H](CCC(=O)O)NC(=O)[C@H](CC(=O)O)NC(=O)[C@H](CC(C)C)NC(=O)[C@H](CC(C)C)NC(=O)[C@H](CCCNC(=N)N)NC(=O)[C@H](CCSC)NC(=O)[C@@H](NC(=O)[C@H](CCC(=O)O)NC(=O)[C@H](Cc1ccc(O)cc1)NC(=O)[C@@H](NC(=O)[C@H](CCCCN)NC(=O)[C@H](CCC(N)=O)NC(=O)[C@H](CC(C)C)NC(=O)[C@@H](NC(=O)[C@H](Cc1c[nH]c2ccccc12)NC(=O)[C@H](CCC(=O)O)NC(=O)[C@H](CCCCN)NC(=O)[C@H](CC(=O)O)NC(=O)[C@@H](CCC(=O)O)NC(=O)[C@@H]1CSCC(=O)N[C@@H](C)C(=O)N[C@@H](CO)C(=O)N[C@@H](Cc2ccc(O)cc2)C(=O)N[C@@H](Cc2c[nH]cn2)C(=O)N[C@@H](CC(C)C)C(=O)NCC(=O)N[C@@H](CCC(=O)O)C(=O)N[C@@H](CC(C)C)C(=O)N[C@@H](C(C)C)C(=O)N[C@@H](Cc2c[nH]c3ccccc23)C(=O)N2Cc3ccccc3C[C@H]2C(=O)NC(C)(C)C(=O)N1)[C@@H](C)CC)[C@@H](C)CC)[C@@H](C)CC)C(C)C)C(=O)N[C@@H](Cc1ccc(O)cc1)C(=O)N[C@@H](CCC(=O)O)C(=O)N[C@@H](Cc1ccccc1)C(=O)N[C@@H](CCSC)C(=O)N[C@@H](CCCCN)C(=O)N[C@@H](CCCCN)C(=O)NCC(=O)N[C@@H](CC(=O)O)C(=O)N[C@@H](CCC(=O)O)C(=O)N[C@@H](CCCNC(=N)N)C(=O)N[C@@H](CC(C)C)C(=O)N[C@@H](CC(C)C)C(=O)N[C@@H](CCC(=O)O)C(=O)N[C@@H](CCC(=O)O)C(=O)N[C@@H](C)C(=O)N[C@@H](CCC(=O)O)C(=O)N[C@@H](CCCNC(=N)N)C(=O)N[C@@H](CC(C)C)C(=O)N[C@@H](CC(C)C)C(=O)N[C@@H](CCC(=O)O)C(=O)N[C@@H](CCC(=O)O)C(=O)N[C@H](C(=O)N[C@@H](CCC(=O)O)C(=O)N[C@@H](CCCNC(=N)N)C(=O)O)C(C)C [Compound 130],1.3 nM and 1.5 nM,,,,
CC[C@H](C)[C@H](NC(=O)[C@H](CC(C)C)NC(=O)[C@H](CC(=O)O)NC(=O)[C@H](CO)NC(=O)[C@@H]1CSSC[C@H](NC(=O)[C@@H](NC(=O)[C@H](CCC(=O)O)NC(=O)[C@H](Cc2ccc(O)cc2)NC(=O)[C@@H](NC(=O)[C@H](CCCCN)NC(=O)[C@H](CCC(N)=O)NC(=O)[C@H](CC(C)C)NC(=O)[C@@H](NC(=O)[C@H](Cc2c[nH]c3ccccc23)NC(=O)[C@H](CCC(=O)O)NC(=O)[C@H](CCCCN)NC(=O)[C@H](CC(=O)O)NC(=O)CCOCCOCCOCCOCCNC(=O)CCCC[C@@H]2SC[C@@H]3NC(=O)N[C@@H]32)[C@@H](C)CC)[C@@H](C)CC)[C@@H](C)CC)C(=O)N[C@@H](CCCNC(=N)N)C(=O)N[C@@H](CC(C)C)C(=O)N[C@@H](CC(C)C)C(=O)N[C@@H](CC(=O)O)C(=O)N[C@@H](CCC(=O)O)C(=O)N[C@@H](CC(C)C)C(=O)NCC(=O)N[C@@H](Cc2c[nH]cn2)C(=O)N[C@@H](C)C(=O)N[C@@H](CCC(=O)O)C(=O)N[C@@H](C)C(=O)N[C@@H](CO)C(=O)N[C@@H](CCSC)C(=O)N[C@@H](CCCNC(=N)N)C(=O)N1)C(=O)N[C@@H](Cc1ccc(O)cc1)C(=O)N[C@@H](CCC(=O)O)C(=O)N[C@@H](Cc1ccccc1)C(=O)N[C@@H](CCSC)C(=O)N[C@@H](CCCCN)C(=O)N[C@@H](CCCCN)C(=O)NCC(=O)O [Compound 181] ({Biotin-PEG4}-DKEWILQKIYEICRLLDELGHAEASMRCSDLIYEFMKKG-OH; disulfide 13-28),2.1 nM and 3.1 nM,0.77 nM and < 0.3 nM,2.51 nM,,
Ac-DCAWHLGELVWCTILQKIYEIMRLLDELGHAEASMRVSDLIYEFMKK (disulfide 2-12) [Compound 122],,> 10 nM,33.5 nM,,
Ac-DKEWILQKIYEIMRLLDELGHAEASMRVSDLIYEFMKKGDERLLEEAERLLEEVEREAAAKEAAAKDCAWHLGELVWCT-NH2 (disulfide 68-78) [Compound 146],0.27 nM,,1 nM,0.02 nM,
Ac-DKEWILQKIYEIMRLLDELGHAEASMRVSDLIYEFMKKGDERLLEEAERLLEEVERGGDCAWHLGELVWCT-NH2 (disulfide 60-70) [Compound 145],0.52 nM,0.04 nM,0.97 nM,,
Ac-DKEWILQKIYEIMRLLDELGHAEASMRVSDLIYEFMKKGDERLLEEAERLLEEVERGGGGDCAWHLGELVWCT-NH2 (disulfide 62-72) [Compound 144],0.61 nM,0.03 nM,1.17 nM,,
Ac-DKEWILQKIYEIMRLLDELGHAEASMRVSDLIYEFMKKGDERLLEEAERLLEEVERGGGGGGDCAWHLGELVWCT-NH2 (disulfide 64-74) [Compound 143],0.75 nM,0.05 nM,1.35 nM,,
Ac-DKEWILQKIYEIMRLLDELGHAEASMRVSDLIYEFMKKGDERLLEEAERLLEEVERGGGGGGGGDCAWHLGELVWCT-NH2 (disulfide 66-76) [Compound 142],0.6 nM,0.05 nM,1.35 nM,,
Ac-DKEWILQKIYEIMRLLDELGHAEASMRVSDLIYEFMKKGGGGGGGGGDCAWHLGELVWCT (disulfide 49-59) [Compound 166],,0.23 nM,,,16.6 nM
"Ac-ILQKIYEICRLLDELGHAEASMRCSDLIYEFMKKGDCAWHLGELVWCT-NH2 (disulfide 9-24, 37-47) [Compound 141]",,3.4 nM and 2.1 nM,,,25.1 nM and 43.8 nM and 30.1 nM
"Ac-ILQKIYEIMRLCDELGHAEACMRVSDLIYEFMKKGDCAWHLGELVWCT-NH2 (disulfide 12-21, 37-47) [Compound 139]",,17 nM and 13 nM,,,315 nM and 514 nM and 259 nM
Ac-ILQKIYEIMRLLDELGHAEASMRVSDLIYEFMKKDCAWHLGELVWCT (disulfide 36-46) [Compound 118],,0.53 nM and 0.61 nM,61.9 nM and 62.5 nM,,
"Ac-QKIYEICRLLDELGHAEASMRCSDLIYEFMKKGDCAWHLGELVWCT-NH2 (disulfide 7-22, 35-45) [Compound 140]",,> 100 nM,,,1560 nM
"Ac-QKIYEIMRLCDELGHAEACMRVSDLIYEFMKKGDCAWHLGELVWCT-NH2 (disulfide 10-19, 35-45) [Compound 164]",,> 100 nM,,,> 10000 nM
ILQKIYEIMRLLDELGHAEASMRVSDLIYEFMKKDCAWHLGELVWCT (disulfide 36-46) [Compound 119],,2.4 nM and 2.9 nM,46.6 nM and 66.7 nM,,
